This is an account of results in patent publication US11364275B2, “Linear lipopeptide paenipeptins and methods of using the same” (priority 2017, dated 2022).

≈ marks a conversion by molar mass, not a printed value. Where two headings read alike, the source gives them in different places. Where a SMILES comes first, the peptide text is derived from it. [ ]: non-standard residue; d: D form. Cha = N[C@@H](CC1CCCCC1)C(=O)O; Dab = NCC[C@H](N)C(=O)O

In data set [1] the test system is Klebsiella pneumoniae ATCC 13883. Format: cell-based. Conditions: K. pneumoniae.
Experimental: The minimum inhibitory concentration (MIC) of paenipeptin analogues was determined using the broth microdilution method (Wirker, M. A. Methods for Dilution Antimicrobial Susceptibility Tests for Bacteria that Grow Aerobically: Approved Standard M07-A8; Clinical and Laboratory Standards Institute, Wayne, Pa., 2009). Seven reference strains (Acinetobacter baumannii ATCC 19606, Escherichia coli ATCC 25922, Klebsiella pneumoniae ATCC 13883, Pseudomonas aeruginosa ATCC 27853, Enterococcus faecium ATCC 19434, Staphylococcus aureus ATCC 29213 and methicillin-resistant S. aureus ATCC 43300) were subjected to MIC testing.
(§6) Paenipeptin analogues were two-fold diluted in tryptic soy broth (TSB; Becton Dickinson) and mixed with an equal volume of bacterial suspensions in TSB containing approximately 1.5×10^5 colony-forming units (CFU)/mL in a clear UV-sterilized 96-well microtiter plate (NBS, Corning Inc., Corning, N.Y.). […] The microtiter plate was incubated at 37° C. for 18-20 h.
Data set [2] has as its system S. aureus ATCC 29213. Nature of the data set: Impact of purified LTA on bactericidal activity. Conditions: analogue at 32 μg/mL, 60 min. Format: cell-based, Staphylococcus aureus.
Data set [3] concerns P. aeruginosa ATCC 27853 biofilm. Kind of data set: Established catheter-associated biofilm in vitro. In kind it is cell-based, Pseudomonas aeruginosa. Conditions: 40× MIC (40 μg/ml). On the procedure:
(§1) Each well was inoculated with the methicillin-resistant S. aureus strain LAC or P. aeruginosa ATCC 27853 to an OD600nm of 0.05. […] After 72 h of exposure, catheters were rinsed with PBS, followed by sonication (for S. aureus) or vigorous vortexing (for P. aeruginosa) to quantitatively recover adherent bacteria. Viable S. aureus or P. aeruginosa cells were enumerated by plating serial dilutions on TSA.

In data set [4] the test system is E. coli ATCC 25922. In kind it is cell-based, Escherichia coli. Conditions: E. coli; 95% serum vs TSB. Here is the method: (§2) The impact of human serum on the antibacterial activity of selected paenipeptin analogues was determined using a procedure similar to that used for MIC determination as described above except that the microbiological medium was replaced by human serum (MP Biomedicals, Solon, Ohio). Paenipeptin analogues were two-fold diluted in 100% human serum and mixed with an equal volume of 90% serum containing approximately 1.5×10^5 CFU/mL of E. coli ATCC 25922 or S. aureus ATCC 29213. The final paenipeptin concentrations ranged from 0.5-64 μg/mL in 95% serum. The MIC in the presence of serum was then tested as described above.

In data set [5] the test system is P. aeruginosa ATCC 27853. In kind it is cell-based, Pseudomonas aeruginosa. An excerpt: (§3) The surviving cells from each antimicrobial concentration with no visible growth were enumerated by plating on tryptic soy agar (TSA). MBC was defined as the lowest concentration of the antimicrobial agent that led to at least a 99.9% reduction in the number of viable bacterial cells relative to the initial inoculum. There were three independent experiments with one replicate in each experiment.

In data set [6] the test system is S. aureus ATCC 29213. Kind of data set: Time-kill assay. Format: cell-based, Staphylococcus aureus. Conditions: for reduction of viable cells: after 4 h. On the procedure: (§4) The surviving cells after antimicrobial treatment were enumerated at 0, 2, 4, 6 and 24 h by plating on TSA. There were three independent experiments with one replicate in each experiment
Another data set has as its system rabbit red blood cells. Nature of the data set: Hemolytic activity. Format: cell-based. Conditions: relative to Triton X-100. In short, it runs like this:
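Washed defibrinated rabbit RBCs in PBS pH 7.2 incubated 30 min at 37 °C with paenipeptin analogues at 16–128 μg/mL final. Released hemoglobin read at 415 nm in the supernatant; % hemolysis relative to 0.1% Triton X-100.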

Data set [7] concerns nine carbapenem-resistant clinical isolates from the FDA-CDC Antibiotic Resistance Bank. Conditions: range over nine carbapenem-resistant clinical isolates.
Experimental: The minimum inhibitory concentration (MIC) of paenipeptin analogues was determined using the broth microdilution method (Wirker, M. A. Methods for Dilution Antimicrobial Susceptibility Tests for Bacteria that Grow Aerobically: Approved Standard M07-A8; Clinical and Laboratory Standards Institute, Wayne, Pa., 2009).
as §6
There were at least three independent experiments with one replicate in each experiment.
Data set [8] deals with P. aeruginosa ATCC 27853. Kind of data set: Impact of purified LPS on bactericidal activity. Format: cell-based, Pseudomonas aeruginosa. Conditions: LPS 100 μg/ml; analogue at 16 μg/mL; 60 min. Here is the method:
For studies with LPS, P. aeruginosa ATCC 27853 was diluted with TSB to contain approximately 10^6 CFU/mL. […] The mixtures were incubated at 37° C. with agitation at 200 rpm for 60 min. Surviving cells were quantified by plating on TSA. There were three independent experiments with one replicate in each experiment. […] There were four independent experiments with one replicate in each experiment.

Data set [9] relates to E. coli ATCC 25922. Format: cell-based, Escherichia coli.
From the text: as §3

Data set [10] concerns Escherichia coli ATCC 25922. In kind it is in vitro ADME. On the procedure: To determine the stability of peptides in human serum, paenipeptin analogues were added into 100% human serum to a final concentration of 64 μg/ml. The mixtures were incubated at 37° C. and samples were withdrawn at 0, 6, 12 and 24 h. […] The residual antibacterial activity after incubation in human serum was compared to the non-treated control.

The subject of data set [11] is methicillin-resistant S. aureus strain LAC biofilm. Kind of data set: Established catheter-associated biofilm in vitro. Format: cell-based, Staphylococcus aureus. Conditions: for reduction of viable biofilm-associated cells: 72 h. Here is the method:
as §1

A further data set concerns A. baumannii ATCC 19606. Format: cell-based, Acinetobacter baumannii.
From the text: as §3

The subject of data set [12] is Acinetobacter baumannii ATCC 19606. Format: cell-based. Conditions: A. baumannii.
The subject of data set [13] is P. aeruginosa ATCC 27853. Nature of the data set: Time-kill assay. Format: cell-based, Pseudomonas aeruginosa. Here is the method: as §4
Data set [14] concerns Escherichia coli ATCC 25922. Format: cell-based. Conditions: ATCC 25922.
The subject of data set [15] is S. aureus ATCC 29213. In kind it is cell-based, Staphylococcus aureus. Conditions: S. aureus; 95% serum vs TSB. On the procedure: as §2
For data set [16], the system named is K. pneumoniae FDA-CDC AR 0044. Nature of the data set: microbe, parasite or virus in culture. Conditions: Klebsiella pneumoniae, read-out: MIC alone.
Data set [17] concerns A. baumannii FDA-CDC AR 0052. Kind of data set: microbe, parasite or virus in culture. Conditions: Acinetobacter baumannii, read-out: MIC alone.
For data set [18], the system named is A. baumannii FDA-CDC AR 0083. Nature of the data set: microbe, parasite or virus in culture. Conditions: Acinetobacter baumannii, read-out: MIC alone.
Data set [19] deals with K. pneumoniae FDA-CDC AR 0034. Nature of the data set: microbe, parasite or virus in culture. Conditions: Klebsiella pneumoniae, read-out: MIC alone.
Data set [20] deals with Klebsiella pneumoniae ATCC 13883. Kind of data set: MIC of antibiotics with or without paenipeptin analogues (potentiation). In kind it is cell-based. Conditions: Klebsiella pneumoniae, ATCC13883. An excerpt: (§5) Gram-negative bacteria, including Acinetobacter and Klebsiella, are intrinsically resistant to the hydrophobic antibiotic rifampicin.
Data set [21] concerns Acinetobacter baumannii ATCC 19606. The description is as above. Format: cell-based. Conditions: Acinetobacter baumannii, ATCC19606; A. baumannii ATCC 19606; rifampicin alone; read-out: MIC of rifampicin at 0 μg/mL of paenipeptin analogues.
From the text: as §5

Data set [22] deals with A. baumannii FDA-CDC AR 0063. Kind of data set: microbe, parasite or virus in culture. Conditions: Acinetobacter baumannii, read-out: MIC alone.
The test system of data set [23] is A. baumannii FDA-CDC AR 0070. Nature of the data set: microbe, parasite or virus in culture. Conditions: Acinetobacter baumannii, read-out: MIC alone.
The test system of data set [24] is K. pneumoniae FDA-CDC AR 0068. Nature of the data set: microbe, parasite or virus in culture. Conditions: Klebsiella pneumoniae, read-out: MIC alone.
For data set [25], the system named is K. pneumoniae FDA-CDC AR 0097. Kind of data set: microbe, parasite or virus in culture. Conditions: Klebsiella pneumoniae, read-out: MIC alone.
Data set [26] has as its system A. baumannii FDA-CDC AR 0063. Nature of the data set: Time-kill kinetics in 95% human serum, alone and combined. Conditions: A. baumannii AR 0063, 24 h. Format: cell-based, Acinetobacter baumannii. On the procedure: Bacterial viable counts were determined at 0, 2, 4, 6, and 24 h after antimicrobial treatment. Bacterial surviving counts at 24 h endpoints were subjected to analysis of variance (ANOVA) followed by Tukey's honest significant difference (HSD) tests using SPSS Statistics (version 24; SPSS, Inc., Chicago, Ill., USA).
To further test the therapeutic potential of paenipeptin analogues, the time-kill kinetics assays of paenipeptins alone or in combination with other antibiotics were performed in 95% human serum in vitro. Without antimicrobial treatment, the population of A. baumannii FDA-CDC AR 0063 increased from 5.8 log to 9.3 log within 24 h. […] (FIG. 7A).

The subject of data set [27] is K. pneumoniae FDA-CDC AR 0080. Kind of data set: microbe, parasite or virus in culture. Conditions: Klebsiella pneumoniae, read-out: MIC alone.
For data set [28], the system named is A. baumannii FDA-CDC AR 0037. Nature of the data set: microbe, parasite or virus in culture. Conditions: Acinetobacter baumannii, read-out: MIC alone.

Consider `CC(C)C[C@H](NC(=O)[C@@H](Cc1ccccc1)NC(=O)[C@H](CCN)NC(=O)[C@H](Cc1ccccc1)NC(=O)[C@H](CCN)NC(=O)[C@@H](N)CC1CCCCC1)C(=O)N[C@@H](CCN)C(=O)N[C@H](CC(C)C)C(=O)N[C@@H](Cc1ccccc1)C(=O)N[C@@H](CO)C(N)=O` [Analogue 17] (H-[Cha][Dab]F[Dab][dF]L[Dab][dL]FS-NH2), for which the “improvement in antibacterial activity by comparison to compound 8” value in data set [1] and in data set [12] was at least 4 fold each time. Moreover, the “impact of purified LTA on antibacterial activity” value with S. aureus ATCC 29213 [2] (LTA 50 μg/ml) was “some inhibition”; in the data set on S. aureus ATCC 29213 [2] (LTA 100 μg/mL), “significantly reduced the antibacterial activity”. In addition, the “reduction of viable cells in established biofilm” value in data set [3] was determined as 2.6 log. For the same compound, the “reduction in activity in the presence of human serum” value in the data set on E. coli ATCC 25922 [4] and in the data set with S. aureus ATCC 29213 [15] was 88-94% each time. The results for the MBC against P. aeruginosa ATCC 27853 [5], in the data set on E. coli ATCC 25922 [9] and in the data set on A. baumannii ATCC 19606 were 2 to 4 µg/mL, 8 to 16 µg/mL and 4 to 8 µg/mL, respectively. The regrowth entry in the data set with S. aureus ATCC 29213 [6] (8 μg/ml) is “Regrowth”. Further, the “reduction of viable cells” value in the data set on S. aureus ATCC 29213 [6] (16 μg/ml) came out at 3.1 logs; with S. aureus ATCC 29213 [6] (32 μg/ml), 5.4 logs; in the data set on P. aeruginosa ATCC 27853 [13] (8 μg/ml, 2 h), 2.2 log; in the data set on P. aeruginosa ATCC 27853 [13] (16 μg/ml, within 2 h), 3.7 logs; in the data set on P. aeruginosa ATCC 27853 [13] (32 μg/ml, within 2 h), 5.1 logs. For the same compound, the Hemolysis with rabbit red blood cells (16 μg/mL) is given as 0.60 ± 0.18%; with rabbit red blood cells (32 μg/mL) it was 2.46 ± 0.34%; in the data set on rabbit red blood cells (64 μg/mL), 11.02 ± 0.99%; in the data set with rabbit red blood cells (128 μg/mL) it was 34.6 ± 0.91%. The MIC in data set [7] lay in the range of 0.5 to 2 µg/mL; in data set [14], 0.5 to 1 µg/mL. Moreover, in the data set with P. aeruginosa ATCC 27853 [8], the “impact of purified LPS on bactericidal activity” value is on record as “neutralized the bactericidal activity”. In addition, the “MIC after incubation in human serum at 37° C.” value in [10] (ATCC 25922, 0 h) was in the range of 4 to 8 µg/mL; in data set [10] (ATCC 25922, 6 h), 4 to 8 µg/mL; in [10] (ATCC 25922, 12 h), 4 to 8 µg/mL. The “reduction of viable biofilm-associated cells” value in data set [11] (40 μg/mL (5×MIC)) was determined as 3 log; in data set [11] (160 μg/mL (20×MIC)), 5 log. The “catheters completely cleared of viable bacteria” value in data set [11] (20 times MIC, six catheters) was 50%. Also, in the data set with P. aeruginosa ATCC 27853 [13] (8 μg/ml, 24 h), the “regrowth at 24 h” value is “significant bacterial regrowth was observed”. For the same compound, the “viable cells after 24 h exposure” value is “no viable cells were detected” with P. aeruginosa ATCC 27853 [13] (16 μg/ml, 24 h) and “no viable cells were detected” in the data set with P. aeruginosa ATCC 27853 [13] (32 μg/ml, 24 h).

With `CO[C@H]1/C=C/O[C@@]2(C)Oc3c(C)c(O)c4c(O)c(c(/C=N/N5CCN(C)CC5)c(O)c4c3C2=O)NC(=O)/C(C)=C\C=C\[C@H](C)[C@H](O)[C@@H](C)[C@@H](O)[C@@H](C)[C@H](OC(C)=O)[C@@H]1C` [rifampicin], the MIC came to 32 µg/mL (≈ 38.9 µM) in [16]; 1 µg/mL (≈ 1.22 µM) in [17]; 32 µg/mL (≈ 38.9 µM) in data set [18]; 16 µg/mL (≈ 19.4 µM) in [19]; 16 µg/mL in data set [20] (K. pneumoniae ATCC 13883, rifampicin alone, read-out: MIC of rifampicin at 0 μg/mL of paenipeptin analogues); 19.4 µM in [20] (K. pneumoniae, read-out: MIC of rifampicin alone). Further, the MIC in data set [21] is 16 µg/mL; in [22] it was 1 µg/mL (≈ 1.22 µM); in data set [23], 1 µg/mL (≈ 1.22 µM); in data set [24], 32 µg/mL (≈ 38.9 µM); in data set [25] it was 32 µg/mL (≈ 38.9 µM); in [27] it was over 32 µg/mL. The MIC in data set [28] worked out at 2 µg/mL (≈ 2.43 µM). Further, in data set [26], the “log reduction of cell population, single agent at 4 μg/ml” value was 1.4 log.
